Data set [1] relates to B16-F10 cells. Kind of data set: B16-F10 cell growth in vitro (cell counting). It is filed as cell-based, mouse. The settings on record: 100 nM added every 24 h, cell density over time, n = 9. The procedure:
(§1) Endothelial cell proliferation. BUVEC-E6E7 cells seeded at 14,000 cells cm^-2 in a 96-well plate were starved with 0.1% FBS for 24 h and treated or not with VEGF (50 ng mL^-1) in starvation medium with or without different concentrations of five peptides synthesized along the 45 to 58 residue sequence of human PRL or with recombinant vasoinhibin of 123 amino acids (positive control). HUVEC cells were seeded at 14,000 cells cm^-2 in a 96-well plate for 24 h and starved with 0.5% FBS for 12 h. […] DNA synthesis was quantified by the DNA incorporation of the thymidine analogue 5-ethynyl-2’-deoxyuridine (EdU, Sigma) added at the time of treatments and labelled by the click reaction with fluorescent Azide Fluor 545 (Sigma-Aldrich) as reported. Images were obtained in a fluorescent inverted microscope (Olympus IX51, Japan) and quantified using the CellProfiler software. The number of EdU-positive cells over total DNA (Hoechst)-stained cells was expressed as percentage proliferation. […] Cells were trypsinized and counted.

In data set [2] the test system is HUVEC. The data set is described as follows: HUVEC cell density over time (cell counting). It is filed as cell-based, human. The settings on record: 100 nM added every 24 h, complete medium, n = 9. The protocol: as §1
Data set [3] concerns HUVEC. The note with it: for Span: span of fitted dose-response curve, VEGF + bFGF-induced HUVEC proliferation relative to lowest and highest dose of CRIVi45-51. The procedure: HUVEC were seeded at 14,000 cells cm^−2 in a 96-well plate and, after 24 h, starved with 0.5% FBS for 12 h. The medium was refreshed with 20% FBS-F12K and incubated with 100 μg mL^−1 heparin together with 25 ng mL^−1 VEGF and 20 ng mL^−1 bFGF for 24 h in combination with a single dose (100 nM) or different concentrations of PRL, vasoinhibin, or synthetic oligopeptides. DNA synthesis was quantified by the DNA incorporation of the thymidine analog 5-ethynyl-2’-deoxyuridine (EdU, Sigma) labeled by the click reaction with fluorescent Azide Fluor 545 (Sigma-Aldrich) as reported.
Endothelial cell proliferation. BUVEC-E6E7 cells seeded at 14,000 cells cm^-2 in a 96-well plate were starved with 0.1% FBS for 24 h and treated or not with VEGF (50 ng mL^-1) in starvation medium with or without different concentrations of five peptides synthesized along the 45 to 58 residue sequence of human PRL or with recombinant vasoinhibin of 123 amino acids (positive control). HUVEC cells were seeded at 14,000 cells cm^-2 in a 96-well plate for 24 h and starved with 0.5% FBS for 12 h. Medium was then replaced by 20% FBS-F12K and 100 μg mL^-1 heparin containing or not VEGF (25 ng mL^-1), bFGF (20 ng mL^-1), IL-1b (10 ng mL^-1), or BK (10 μM) or a combination of 25 ng mL^-1 of VEGF and 20 ng mL^-1 of bFGF for 24 h in the presence or absence of a single dose (100 nM) or different doses of PRL (negative control), recombinant vasoinhibin, Vi45-51, synthetic peptides having the same residue composition as the 45-51 segment but in scrambled order (negative control), Vi45-51 subjected to alanine scanning mutagenesis, a tripeptide comprising residues 46 to 48 of vasoinhibin (Vi46-48), a Vi45-51 where G47 was deleted (des-G^47), a conserved version of the Vi45-51 (cVi45-51) and the QGR tripeptide, heptapeptides comprising residues 39 to 45 of growth hormone (GH39-45) or placental lactogen (PL39-45), tripeptides EQK and QKY, the dipeptide QK (Table S2), alanine mutants of the vasoinhibin with 123 residues (Vi-H46A, Vi-R48A, Vi-H46A/R48A), alanine mutants of PRL (PRL-E161A, PRL-E162A, PRL-E161A/E162A), CRIVi45-51, antiangiogenic proteins (endostatin, angiostatin), antiangiogenic oligopeptides (anginex, cilengitide), or antiangiogenic tyrosine-kinase inhibitors (pazopanib, sunitinib, sorafenib). DNA synthesis was quantified by the DNA incorporation of the thymidine analogue 5-ethynyl-2’-deoxyuridine (EdU, Sigma) added at the time of treatments and labelled by the click reaction with fluorescent Azide Fluor 545 (Sigma-Aldrich) as reported. Images were obtained in a fluorescent inverted microscope (Olympus IX51, Japan) and quantified using the CellProfiler software. The number of EdU-positive cells over total DNA (Hoechst)-stained cells was expressed as percentage proliferation. B16-F10 cells and HUVEC were seeded at 12,600 cells cm^-2 and 7,400 cells cm^-2, respectively, in a 24-well plate and incubated for different times in complete medium in the absence or presence of 100 nM CRIVi45-51 added every 24 h. Cells were trypsinized and counted.

Data set [4] deals with pepsin (Sus scrofa, UniProt P00791). Kind of data set: Pepsin digestion, residual antiproliferative activity. The settings on record: 4 μM, 1:20 protease to substrate molar ratio, 40 mM HCl, 37 °C, 5 h; read-out inhibition of VEGF + bFGF-induced HUVEC proliferation at 10 nM, n = 9.
A short description of data set [5]: Heat treatment, residual antiproliferative activity. The settings on record: 2 μM solution, 97 °C, 15 min; read-out inhibition of VEGF + bFGF-induced HUVEC proliferation at 10 nM, n = 9. The data set is classed as physicochemical.
Data set [6] relates to B16-F10 melanoma tumors. Kind of data set: B16-F10 melanoma tumor model. It is filed as in vivo. The settings on record: C57BL6 mice. The protocol:
The mouse model of primary tumor development based on the use of B16-F10 melanoma cells was used as previously reported. Briefly, anesthetized female C57BL6 mice (8–12 weeks-old) were inoculated into their right flank with 10^5 B16-F10 cells. Five days after tumor cell inoculation, mice were treated daily with vehicle (NS) or CRIVi45–51 injected into the lateral tail vein or via intragastric gavage for the 8 d following tumor cell injection. Animals were then euthanized by cervical dislocation and the tumors weighted and processed to evaluate blood vessels by immunofluorescence or RT-qPCR.
Tumor model. Female C57BL6 mice (8-12 weeks-old) under 2.5% isoflurane anesthesia (SomnoSuite system, Kent Scientific, Torrington, CT) were inoculated into their right flank with 10^5 B16-F10 cells in 50 μL PBS. Tumor length and width were measured daily, and volume was estimated by the formula: Volume = (length x width^2) x 0.5. Five days after tumor cell inoculation, mice were injected daily into the lateral tail vein with vehicle (normal saline) or 0.1 or 1.0 mg kg^-1 CRIVi45-51, and tumor volumes were assessed daily for the following 8 d. In other experiments, 1.0 mg kg^-1 CRIVi45-51 or vehicle was delivered daily intragastrically through a 20G x 1.5’’ curved metal gavage canula (Cadence Science, Staunton, VA) for the 8 d following tumor cell injection. Animals were then euthanized by cervical dislocation and the tumors processed or frozen to evaluate blood vessels by immunofluorescence or RT-qPCR, respectively. […] Tumor sections were cover-slipped with Vectashield H-1000 (Vector Laboratories) and digitalized at 20X and 40X magnification under a fluorescence microscope (Olympus BX60). The number of vessels per tumor area measured vascular density. CD-31 and VE-Cad mRNA levels were quantified by RT-qPCR following the method already described in the retinal angiogenesis assay section.

[7] abbreviates: VEGF 25 ng/mL + bFGF 20 ng/mL-induced HUVEC proliferation, 24 h, EdU incorporation, non-linear best fit, n = 9.

Where two headings read alike, the source gives them in different places. Square brackets hold non-standard residues; d marks the D form. Ends that are not written are not given here. Peptide text beside a SMILES is read from it.

pepsin, sequence (P00791 60-385): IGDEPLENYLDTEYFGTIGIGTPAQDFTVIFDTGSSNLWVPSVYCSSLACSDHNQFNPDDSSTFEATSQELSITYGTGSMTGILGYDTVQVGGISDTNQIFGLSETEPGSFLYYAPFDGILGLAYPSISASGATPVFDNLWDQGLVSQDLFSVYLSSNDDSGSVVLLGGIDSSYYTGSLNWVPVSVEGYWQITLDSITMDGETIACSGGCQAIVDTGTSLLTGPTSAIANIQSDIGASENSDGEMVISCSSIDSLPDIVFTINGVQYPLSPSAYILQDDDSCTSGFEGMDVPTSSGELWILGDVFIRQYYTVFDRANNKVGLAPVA

Take `CC[C@@H](C)[C@H]1NC(=O)[C@@H]([C@H](C)O)NC(=O)[C@@H](Cc2c[nH]cn2)NC(=O)CNC(=O)[C@@H](CCCNC(=N)N)NC(=O)CNC(=O)[C@@H](Cc2ccccc2)NC1=O` [CRIVi45–51, cyclic-retro-inverse-vasoinhibin-(45–51)-peptide] (cyclo([dI][dF]G[dR]G[dH][dT])): the “growth of melanoma cells in vitro” value in data set [1] is listed as “did not inhibit”. Further, the “HUVEC cell density over time” value in data set [2] is on record as “reduces proliferation”. Moreover, in data set [3] (ratio of IC50 values, VEGF + bFGF-induced HUVEC proliferation), the “fold lower IC50 than other antiangiogenic proteins (endostatin and angiostatin) and peptides (anginex and cilengitide)” value is 2.7- to 214 fold. Further, the Span in data set [3] (non-linear best fit, n = 9) amounted to 86.86%. The “resistance to pepsin degradation” value in data set [4] is given as “resistant”. Moreover, in data set [5], the “activity after heat inactivation” value is “retained full activity”. The “tumor growth, oral administration” value in data set [6] (B16-F10, 1.0 mg/kg daily intragastric gavage, 8 d, n = 9) was “decreased tumor growth with similar efficacy to intravenous delivery”. For the same molecule, the “tumor growth, intravenous” value in data set [6] (B16-F10, daily i.v. 0.1 or 1.0 mg/kg for 8 d from day 5, n = 9) is on record as “reduced tumor growth in a dose-related manner”. In addition, the “tumor vascular density and expression of CD31” value in data set [6] (B16-F10 tumors, daily i.v., n = 9) was “reduce”.

With “ANIKLSVQMKLFKRHLKWKIIVKLNDGRELSLD [Anginex, reference compound]”, the Span in data set [3] (non-linear best fit, n = 9) turned out to be 73.13%.

Turning to `CNC(=O)c1cc(Oc2ccc(NC(=O)Nc3ccc(Cl)c(C(F)(F)F)c3)cc2)ccn1` [Sorafenib, reference compound], the Span in data set [3] (non-linear best fit, n = 9) is 106.00%.

With Endostatin, the IC50 in data set [3] (setting [7]) amounted to 31.2 nM. The Span in data set [3] (non-linear best fit, n = 9) amounted to 49.98%.

In the case of “Ac-THGRGFI-NH2 [Vi45–51, vasoinhibin-(45-51)-peptide]”, the IC50 in data set [3] (24 h) was roughly 0.15 nM.

As to `CCN(CC)CCNC(=O)c1c(C)[nH]c(/C=C2\C(=O)Nc3ccc(F)cc32)c1C` [Sunitinib, reference compound], in data set [3] (non-linear best fit, n = 9), the Span is 93.64%.

On to Angiostatin, for which the IC50 in data set [3] (setting [7]) stood at 0.388 nM. For the same molecule, the Span in data set [3] (non-linear best fit, n = 9) was 68.47%.

Take `Cc1ccc(Nc2nccc(N(C)c3ccc4c(C)n(C)nc4c3)n2)cc1S(N)(=O)=O` [Pazopanib, reference compound]: in data set [3] (non-linear best fit, n = 9), the Span was 83.73%.

B1: PRL: Recombinant human prolactin (protein, UniProt P01236 29-227, looked up)
Prolactin: LPICPGGAARCQVTLRDLFDRAVVLSHYIHNLSSEMFSEFDKRYTHGRGFITKAINSCHTSSLATPEDKEQAQQMNQKDFLSLIVSILRSWNEPLYHLVTEVRGMQEAPEAILSKAVEIEEQTKRLLEGMELIVSQVHPETKENEIYPVWSGLPSLQMADEESRLSAYYNLLHCLRRDSHKIDNYLKLLKCRIIHNNNC
In the case of B1, in data set [3] (VEGF 25 ng/mL + bFGF 20 ng/mL, 24 h, EdU, n = 9), the “dose-response inhibition of VEGF + bFGF-induced HUVEC proliferation (result in words)” value was “not antiangiogenic”.
